According to patent US9498759B2, “Compartmentalized screening by microfluidic control” (President and Fellows of Harvard College, priority 2004, dated 2016):

Columns and labels:
[1] = Compartmentalisation of small molecules in water-in-fluorocarbon emulsions (epifluorescence microscopy); type: physicochemical; settings: water-in-perfluorooctyl bromide emulsions mixed by vortexing, imaged after 24 hours
Description: FIG. 19. Compartmentalisation of small molecules in water-in-fluorocarbon emulsions. Water-in-perfluorooctyl bromide emulsions were made containing texas red (1 mM) and calcein ([…] in the aqueous phase by homogenisation as described in example 9. The two emulsions were mixed by vortexing and imaged by epifluorescence microscopy after 24 hours. No exchange of texas-red (red fluorescence) and calcein (green fluorescence) between microdroplets could be observed.
Water-in-fluorocarbon emulsions containing 95% (v/v) perfluorooctyl bromide, 5% (v/v) phosphate buffered saline containing the molecule of interest in solution, and 2% (w/v) C8F17C11H22OP(O)[N(CH2CH2)2O]2 (F8H1DMP) as surfactant were formed essentially as (Sadtler et al., 1996) by extrusion (15 times) through 14 μm filters (Osmonics) or by homogenising for 5 min at 25,000 r.p.m. using an Ultra-Turrax T8 Homogenizer (IKA) with a 5 mm dispersing tool. Emulsions were made containing a series of small fluorescent molecules dissolved in the aqueous phase at concentrations from […] to 2 mM. These molecules, including calcein, texas red, fluorescein, coumarin 102, 7-hydroxycoumarin-3-carboxylic acid and 7-diethylamino-4-methyl coumarin (coumarin 1), had molecular weights from 203 to 625 Da and Log P values—calculated using SRC's Log Kow/KowWin Program (Meylan and Howard, 1995)—ranging from −0.49 to 4.09. […]

[2] = target: T1, human recombinant PTP1B, residues 1-322 (Homo sapiens, UniProt P18031); assay: Screening for PTP1B inhibitors using microcapsules in a microfluidic system (DiFMUP fluorescence); type: biochemical; settings: 100 μM compound solution, PTP1B 50 mU/ml, substrate DiFMUP, excitation/emission 358/452 nm
T1 construct: human recombinant PTP1B, residues 1-322; purchased Biomol Research Laboratories, Inc
T1 sequence (P18031 1-322): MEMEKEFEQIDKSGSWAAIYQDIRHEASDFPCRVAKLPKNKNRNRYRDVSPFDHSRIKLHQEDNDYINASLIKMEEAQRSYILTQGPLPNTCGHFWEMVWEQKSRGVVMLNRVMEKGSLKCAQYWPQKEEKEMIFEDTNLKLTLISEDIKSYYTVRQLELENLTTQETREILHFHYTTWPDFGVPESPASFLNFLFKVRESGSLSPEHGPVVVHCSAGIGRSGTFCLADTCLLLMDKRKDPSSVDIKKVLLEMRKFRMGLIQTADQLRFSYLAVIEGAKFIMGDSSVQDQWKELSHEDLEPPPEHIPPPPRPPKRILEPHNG
Description: All water-soluble reagents are dissolved in (25 mM HEPES, pH 7.4, 125 mM NaCl, 1 mM EDTA), a buffer compatible with PTP1B activity. […] Each microcapsule containing target enzyme is fused with a microcapsule containing compound 2 or a microcapsule containing hydrocinnamic acid. Microcapsules containing either compound 2 or hydrocinnamic acid can be formed by switching between injection with syringes containing compound 2 and hydrocinnamic acid.
After microcapsule fusion the contents are rapidly mixed. After this point the microcapsules are run for up to 1 min through a 60 cm long microchannel (to allow inhibitor binding). This microchannel is then merged with a second microchannel containing, aqueous microcapsules containing the fluorogenic PTP1B substrate 6,8-difluoro-4-methylumbelliferyl phosphate (DiFMUP) (Molecular Probes) in 25 mM HEPES, pH 7.4, 125 mM NaCl, 1 mM EDTA and the microcapsules fused pairwise. The fused microcapsules are then run for up to 2 min through a 60 cm long microchannel. Fluorescence of the microcapsules due to production of DiFMU (excitation/emmission maxima 358/452 nm; blue fluorescence) is measured.

PTP1B = target: T2, PTP1B (Homo sapiens, UniProt P18031); settings: Johnson et al., 2002; cited from earlier work
T2 sequence (P18031 1-435): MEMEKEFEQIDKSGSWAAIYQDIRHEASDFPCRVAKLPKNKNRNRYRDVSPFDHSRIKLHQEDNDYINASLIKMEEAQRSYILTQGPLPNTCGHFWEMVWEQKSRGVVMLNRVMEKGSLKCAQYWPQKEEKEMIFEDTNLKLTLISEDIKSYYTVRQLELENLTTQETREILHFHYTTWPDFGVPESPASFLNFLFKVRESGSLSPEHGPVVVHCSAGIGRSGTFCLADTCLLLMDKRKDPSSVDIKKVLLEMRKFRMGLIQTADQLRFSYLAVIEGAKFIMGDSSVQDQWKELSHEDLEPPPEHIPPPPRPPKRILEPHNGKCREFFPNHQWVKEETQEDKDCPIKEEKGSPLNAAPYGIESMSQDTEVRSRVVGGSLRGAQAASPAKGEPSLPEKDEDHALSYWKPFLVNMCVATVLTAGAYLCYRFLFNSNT

[3] = target: T3, E. coli β-galactosidase (LacZ) (Escherichia coli, UniProt P00722); settings: Huang, 1991, cited from earlier work
T3 sequence (P00722 2-1024): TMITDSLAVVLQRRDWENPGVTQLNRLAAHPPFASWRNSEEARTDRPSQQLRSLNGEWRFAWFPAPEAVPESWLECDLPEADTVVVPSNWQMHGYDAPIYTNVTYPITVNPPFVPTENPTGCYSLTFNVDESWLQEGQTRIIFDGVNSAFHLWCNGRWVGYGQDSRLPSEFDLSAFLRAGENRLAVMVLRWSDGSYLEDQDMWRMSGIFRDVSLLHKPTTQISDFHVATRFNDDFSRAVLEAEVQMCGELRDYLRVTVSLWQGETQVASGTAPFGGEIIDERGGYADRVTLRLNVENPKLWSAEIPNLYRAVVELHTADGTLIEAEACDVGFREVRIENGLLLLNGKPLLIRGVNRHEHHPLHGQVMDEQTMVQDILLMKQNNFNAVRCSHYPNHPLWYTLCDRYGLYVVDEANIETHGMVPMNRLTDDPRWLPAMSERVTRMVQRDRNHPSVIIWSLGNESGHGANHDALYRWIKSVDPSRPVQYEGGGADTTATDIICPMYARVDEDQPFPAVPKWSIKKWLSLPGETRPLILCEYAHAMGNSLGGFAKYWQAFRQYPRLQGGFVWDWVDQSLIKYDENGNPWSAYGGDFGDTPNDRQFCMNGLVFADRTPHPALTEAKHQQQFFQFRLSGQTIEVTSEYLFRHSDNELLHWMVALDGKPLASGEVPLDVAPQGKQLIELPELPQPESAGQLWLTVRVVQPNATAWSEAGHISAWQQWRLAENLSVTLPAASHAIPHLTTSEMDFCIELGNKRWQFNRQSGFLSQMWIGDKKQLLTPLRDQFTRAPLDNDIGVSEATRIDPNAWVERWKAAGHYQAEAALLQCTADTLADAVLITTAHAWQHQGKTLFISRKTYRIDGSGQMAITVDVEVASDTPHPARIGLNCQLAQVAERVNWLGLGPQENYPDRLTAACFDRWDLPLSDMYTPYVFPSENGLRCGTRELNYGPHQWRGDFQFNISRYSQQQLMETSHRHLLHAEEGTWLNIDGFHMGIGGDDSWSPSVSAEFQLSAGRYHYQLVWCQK

[4] = target: T3, E. coli β-galactosidase (LacZ); type: biochemical
Description: In the enzyme inhibition assay, the rate of catalysis is determined by using a non-fluorescent substrate for LacZ, fluorescein mono-β-D-galactoside (FMG) (FMG), and measuring the appearance of the fluorescent product, fluorescein (excitation 488 nm, emission 514 nm). All components of the LacZ inhibition assay are dissolved in assay buffer (10 mm MgCl2, 50 mM NaCl, 1 mM DTT, 100 μg/ml BSA, 10 mM Tris-HCl, pH 7.9.
Leading into each droplet forming module (FIG. 15) are two Teflon tubes leading from syringe pumps. The channels leading from each tube merge to create a single flow before entering the droplet forming module. The two syringes feeding into the first droplet forming module contain, (a) 50 μM PETG in assay buffer, and (b), assay buffer. The two syringes feeding into the second droplet forming module contain, (c) 100 nM LacZ in assay buffer and (d), assay buffer. The two syringes feeding into the third droplet forming module contain, (e) 5 mM FMG in assay buffer, and (f), assay buffer. The final concentration of each component in each droplet is independently controllable by adjusting relative flow rates of each component and buffer solution while maintaining a constant combined flow rate from both syringes.
The first droplet fusion mixes the inhibitor (PETG) with the enzyme (LacZ). After the combined droplet has spent two minutes in a delay line it is fused with a third droplet containing the fluorogenic enzyme substrate (FMG). Finally, after all the components are mixed the reaction is observed by measuring fluorescence of individual droplets or by integrating fluorescent light from droplets with the same concentration of each component during 10-second exposure time at multiple points in the second 10 min long delay line. Each fluorescence intensity value at different positions is proportional to the amount of product at different reaction times. Rate of product formation is linear during initial reaction time and initial rate (ν) can be determined from linear fitting. […]

[5] = 30 nM LacZ, 0 to 13 μM PETG, 10 to 700 μM FMG

## O=C(O)CN(CC(=O)O)Cc1cc2c(cc1O)Oc1cc(O)c(CN(CC(=O)O)CC(=O)O)cc1C21OC(=O)c2ccccc21 [calcein]
[1]
  Exchange between microdroplets/compartments: No exchange

## O=C(O)CCc1ccccc1 [hydrocinnamic acid]
[2]
  Fluorescence of the microcapsules due to production of DiFMU (blue fluorescence): exhibiting blue fluorescence
PTP1B
  PTP1B inhibitor status / relative potency: not a PTP1B inhibitor

## OCC1OC(SCCc2ccccc2)C(O)C(O)C1O [PETG, phenylethyl β-D-thiogalactopyranoside]
[3]; read-out: Ki of PETG for LacZ, previously published value
  Ki: 0.98 µM
[4]; [5]
  Ki of PETG for LacZ determined in fused microcapsules: within the range of the previously published value
[4]; Lineweaver-Burk plot, same y-intercept at different PETG concentrations
  Mode of inhibition: competitive

## texas red
[1]
  Exchange between microdroplets/compartments: No exchange

## O=C1OC2(c3ccc(O)cc3Oc3cc(O[C@@H]4O[C@H](CO)[C@H](O)[C@H](O)[C@H]4O)ccc32)c2ccccc21 (stereo partly drawn) [FMG, fluorescein mono-β-D-galactoside]
[3]; read-out: KM of FMG for LacZ, previously published value
  Km: 118 µM
[4]; [5]
  KM of FMG for LacZ determined in fused microcapsules, deviation from previously published value: ≤ 20%
